Test results taken from patent US9279010B2, “Treatment of inflammatory bowel diseases with mammal beta defensins” (Defensin Therapeutics ApS, priority 2008, dated 2016).
Marks after values point to notes of the source that are not given here.

Experiments:
[1] = system: Dextran Sodium Sulphate (DSS)-induced colitis; assay: 10-Day DSS-induced colitis model in the mouse (Example 2): Disease Activity Index and colon histology score; type: in vivo, mouse (male C57BL/6); parameters: key to DAI score: DAI score from stool, bleeding, weight loss; daily maximum 12; conditions: for DAI score: 1 mg/kg p.o. daily
Source text: The aim of the following study was to determine the anti-inflammatory activity of human beta defensin 2 in an acute (10-days) model of inflammatory bowel disease (colitis) induced by oral dextran sodium sulphate (DSS) administration in the mouse.
Animals were divided into 5 experimental groups.
Colitis was induced in mice by supplementing their drinking water with DSS 2% for 7 days.
On Day 1 all mice were weighed and marked according to their experimental groups. The drinking bottle of each cage was filled with the DSS solution, making sure all bottle lids were mounted properly and that none were congested.
On Day 3 any remaining solution in the bottles was emptied and refilled with fresh DSS solution. This procedure was repeated again on Day 5.
On Day 8 any remaining solution was discarded and replaced with autoclaved water.
Animals were sacrificed 2 days later on Day 10.
Daily clinical assessment of DSS-treated animals was carried out, with the calculation of a validated clinical Disease Activity Index (DAI) ranging from 0 to 4 according to the following parameters: stool consistency, presence or absence of rectal bleeding and weight loss:
Bodyweight loss was calculated as the percent difference between the original bodyweight (Day 1) and the actual bodyweight on each experimental day (2-10).
The appearance of diarrhoea is defined as mucus/faecal material adherent to anal fur. Rectal bleeding is defined as diarrhoea containing visible blood/mucus or gross rectal bleeding. The maximum score of the DAI each day is 12.
Their colons were removed and their length and weight measured after exclusion of the caecum.
Two sections (proximal and distal) of colon were taken from each animal and preserved in neutral buffered formalin for subsequent histological analysis (haematoxylin and eosin staining) according to the following scoring system:
Two sections (proximal and distal) of colon were taken from each animal, processed for histological analysis (haematoxylin and eosin staining) and scored by a blind observer according to the histological scoring system described above.
The statistical significance of the results was evaluated using the statistics program Graphpad Instat 3. The difference between groups for disease activity index and histological score was evaluated by Kruskal-Wallis test for unpaired data plus post-test Dunn to allow for multiple comparisons. A value of p<0.05 was taken as significant.

TNF-α = assay: Determination of TNF-alpha concentration in colonic tissue samples by ELISA (Example 2); type: in vivo, mouse (male C57BL/6); conditions: 1 mg/kg p.o. daily for 10 days
Description: An additional sample of colon was obtained from each animal and homogenised in PBS (100 mg tissue/ml PBS) containing 1% bovine serum albumin (BSA) and a protease inhibitor cocktail (1 ml/20 g tissue). The homogenate was then be centrifuged at 1400 rpm for 10 min and the supernatant stored at −20° C. for subsequent determination of TNF-α concentration by specific enzyme immunoassay (ELISA).
[…]

[2] = system: Dextran Sodium Sulphate (DSS)-induced colitis; assay: 10-Day DSS-induced colitis model in the mouse (Example 3): Disease Activity Index and colon histology score; type: in vivo
Description: Example 3 was carried out essentially as described in Example 2. The differences are indicated below.
Animals were divided into 9 experimental groups. […]
Methylprednisolone was given orally at a dose of 1 mg/kg (group H) and 10 mg/kg (group J) in a dosing volume of 5 ml/kg body weight, once daily for 10 consecutive days.
Two sections (proximal and distal) of colon were taken from each animal, processed for histological analysis (haematoxylin and eosin staining), and scored by a blind observer according to the scoring system described above.
The statistical significance of the results was evaluated using the statistics program Graphpad Instat 3. The difference between groups for disease activity index and histological score was evaluated by Kruskal-Wallis test for unpaired data+post-test of Dunn for multiple comparisons. A value of p<0.05 was taken as significant. In the tables above, significant differences versus the corresponding control (vehicle) group are denoted as: *p<0.05, **p<0.01, ***p<0.001.

[3] = system: human peripheral blood mononuclear cells (PBMC); assay: TNF production from LPS-treated human PBMC, CBA (Example 5); type: cell-based; conditions: Table 21
Description: (§1) Peripheral blood was drawn from healthy volunteers (with approval from the relevant ethical committee in Denmark). Heparinized blood was diluted 1/1 v/v with RPMI and were subjected to Ficoll density centrifugation within 2 h of drawing. Plasma was collected from the top from individual donors and was kept on ice until it was used at 2% in the culture medium (autologous culture medium). Isolated PBMC were resuspended in autologous culture medium and seeded in 96-well culture plates with 255.000 cells per well in a total of 200 μl. […] The concentrations used for stimulation were optimized on 3 different donors in initial experiments, for LPS two different concentrations were used to be sure to be on a cytokine level that is possible to modulate. In some experiments PBMC were treated with Dexamethason and Indomethacin alone and together with LPS or LTA as a control on downregulation of inflammatory cytokines. The supernatants were collected after incubation at 37° C. for 24 hours, and stored at −80° C. until cytokine measurement. Viability was measured by Alamar Blue (Biosource, DALL 1100) in all experiments and in some cases also by MTS (Promega) according to manufacturer's instruction and was in some experiments also judged by counting of the cells by a Nucleocounter.
(§2) Cytokine production in supernatants was measured by flow cytometry with a human inflammation cytometric bead array (CBA) according to manufacturer's instructions (BD) on a FACSarray flow cytometer. The following cytokines were measured: IL-8, IL-1β, IL-10, TNF, IL-12 p70, IL-6. In some experiments, cytokines were measured by ELISA kits from R&D systems (IL-10, TNF-α, IL-1β) according to the manufacturer′ instruction.
(§3) Example 5 was carried out essentially as described in Example 4.
(§4) In each table, all samples were tested on the same donor. SD means standard deviation.

[4] = system: human peripheral blood mononuclear cells (PBMC); assay: IL-10 production from LPS-treated human PBMC, CBA (Example 5); type: cell-based; conditions: for IL-10 / IL-10 % of control: Table 22
Description: as §1, §2, §4

[5] = system: human peripheral blood mononuclear cells (PBMC); assay: IL-1β production from LPS-treated human PBMC, CBA (Example 5, Table 23); type: cell-based
Description: as §1, §2, §3, §4

human PBMC = assay: Toxicity to human PBMC (Example 5); type: cell-based; conditions: 40 μg/ml
Description: as §1, §3

[6] = LPS 0.6 ng/ml, test compound 1 μg/ml
[7] = LPS 0.6 ng/ml, test compound 10 μg/ml
[8] = LPS 20 ng/ml, test compound 1 μg/ml
[9] = LPS 20 ng/ml, test compound 10 μg/ml

For `C[C@H]1C[C@@H]2[C@H]([C@@H](O)C[C@@]3(C)[C@H]2CC[C@]3(O)C(=O)COC(=O)CCC(=O)O)[C@@]2(C)C=CC(=O)C=C12` [Methylprednisolone 21-hemisuccinate], the “Histology Score Distal Colon” value ([1]; 1 mg/kg p.o. daily for 10 days) was 3.70, the “Histology Score Proximal Colon” value ([1]; 1 mg/kg p.o. daily for 10 days) was 2.80* and the DAI score ([1]; Day 1) was 0.00. The DAI score ([1]; Day 2) was 0.10, the DAI score ([1]; Day 3) was 0.00 and the DAI score ([1]; Day 4) was 2.60. The DAI score ([1]; Day 5) was 2.50, the DAI score ([1]; Day 6) was 2.60 and the DAI score ([1]; Day 7) was 3.10. The DAI score ([1]; Day 8) was 2.50*, the DAI score ([1]; Day 9) was 3.80* and the DAI score ([1]; Day 10) was 4.90**. The “Colon TNF-α concentration” value (TNF-α) was 1833 pg/g tissue, the “Histology Score Distal Colon” value ([2]; 1 mg/kg p.o. once daily) was 3.00*** and the “Histology Score Proximal Colon” value ([2]; 1 mg/kg p.o. once daily) was 1.40. It also gave a DAI score ([2]; 1 mg/kg p.o. once daily, Day 1) of 0.00, a DAI score ([2]; 1 mg/kg p.o. once daily, Day 2) of 0.50 and a DAI score ([2]; 1 mg/kg p.o. once daily, Day 3) of 0.50. For the same molecule, the DAI score ([2]; 1 mg/kg p.o. once daily, Day 4) was 0.40, the DAI score ([2]; 1 mg/kg p.o. once daily, Day 5) was 1.10 and the DAI score ([2]; 1 mg/kg p.o. once daily, Day 6) was 3.80. The DAI score ([2]; 1 mg/kg p.o. once daily, Day 7) was 5.90, the DAI score ([2]; 1 mg/kg p.o. once daily, Day 8) was 6.40 and the DAI score ([2]; 1 mg/kg p.o. once daily, Day 9) was 5.60*. For the same molecule, the DAI score ([2]; 1 mg/kg p.o. once daily, Day 10) was 5.60*, the “Histology Score Distal Colon” value ([2]; 10 mg/kg p.o. once daily) was 2.70*** and the “Histology Score Proximal Colon” value ([2]; 10 mg/kg p.o. once daily) was 1.40. The DAI score ([2]; 10 mg/kg p.o. once daily, Day 1) was 0.00, the DAI score ([2]; 10 mg/kg p.o. once daily, Day 2) was 0.30 and the DAI score ([2]; 10 mg/kg p.o. once daily, Day 3) was 0.70. For the same molecule, the DAI score ([2]; 10 mg/kg p.o. once daily, Day 4) was 0.80, the DAI score ([2]; 10 mg/kg p.o. once daily, Day 5) was 1.30 and the DAI score ([2]; 10 mg/kg p.o. once daily, Day 6) was 2.00. For the same molecule, the DAI score ([2]; 10 mg/kg p.o. once daily, Day 7) was 3.20**, the DAI score ([2]; 10 mg/kg p.o. once daily, Day 8) was 4.80** and the DAI score ([2]; 10 mg/kg p.o. once daily, Day 9) was 5.20*. For the same molecule, the DAI score ([2]; 10 mg/kg p.o. once daily, Day 10) was 4.00***.

In the case of “hBD4 variant: consists of amino acids 3-39 of hBD4, SEQ ID NO:5 (ELDRICGYGTARCRKKCRSQEYRIGRCPNTYACCLRK)”, the TNF ([3]; 1 μg/ml, LPS 0.6 ng/ml) is reported as 468 pg/mL, the “TNF % of control” value ([3]; 1 μg/ml, LPS 0.6 ng/ml) is reported as 64% and the TNF ([3]; 1 μg/ml, LPS 20 ng/ml) is reported as 778 pg/mL. For the same molecule, the “TNF % of control” value ([3]; 1 μg/ml, LPS 20 ng/ml) was 36%, the TNF ([3]; 1 μg/ml, Medium) was 0 pg/mL and the TNF ([3]; 10 μg/ml, LPS 0.6 ng/ml) was 211 pg/mL. The “TNF % of control” value ([3]; 10 μg/ml, LPS 0.6 ng/ml) was 29%, the TNF ([3]; 10 μg/ml, LPS 20 ng/ml) was 139 pg/mL and the “TNF % of control” value ([3]; 10 μg/ml, LPS 20 ng/ml) was 6%. For the same molecule, the TNF ([3]; 10 μg/ml, Medium) was 0 pg/mL, the IL-10 ([4]; 1 μg/ml, LPS 0.6 ng/ml) was 90 pg/mL and the “IL-10 % of control” value ([4]; 1 μg/ml, LPS 0.6 ng/ml) was 136%. For the same molecule, the “IL-10 % of control” value ([4]; 1 μg/ml, LPS 20 ng/ml) was 157%, the IL-10 ([4]; 1 μg/ml, Medium) was 0 pg/mL and the IL-10 ([4]; 10 μg/ml, LPS 0.6 ng/ml) was 92 pg/mL. For the same molecule, the “IL-10 % of control” value ([4]; 10 μg/ml, LPS 0.6 ng/ml) was 139%, the IL-10 ([4]; 10 μg/ml, LPS 20 ng/ml) was 187 pg/mL and the “IL-10 % of control” value ([4]; 10 μg/ml, LPS 20 ng/ml) was 168%. For the same molecule, the IL-10 ([4]; 10 μg/ml, Medium) was 0 pg/mL, the “Secretion of IL-10” value ([4]; human PBMC with LPS, summary of Table 22) was “significantly and dose-dependently enhanced” and the IL-1β [5, 6] was 286 pg/mL. For the same molecule, the “IL-1β % of control” value [5, 6] was 39%, the IL-1β [5, 7] was 163 pg/mL and the “IL-1β % of control” value [5, 7] was 22%. For the same molecule, the IL-1β [5, 8] was 1004 pg/mL, the “IL-1β % of control” value [5, 8] was 40% and the IL-1β [5, 9] was 463 pg/mL. The “IL-1β % of control” value [5, 9] was 18%, the IL-1β ([5]; Medium (no LPS), test compound 1 μg/ml) was 0 pg/mL and the IL-1β ([5]; Medium (no LPS), test compound 10 μg/ml) was 0 pg/mL. The “toxicity to the cells” value (human PBMC) was “toxic to the cells”.
